Experimental data as given in patent US12509474B2, “Inhibitors of complement factors and uses thereof” (Annexon, Inc., priority 2020, dated 2025).
Structures can show the parent of a compound that is named as a salt.

biological target: T1, human C1s protein (Homo sapiens, UniProt P09871); test: C1s enzymatic assay (hydrolysis of YLGR-Rh110-dPro); assay type: biochemical; settings: substrate YLGR-Rh110-dPro 20 μM, 15 min pre-incubation, 60 min RT, fluorescence
T1 construct: A104
T1 sequence (P09871 16-688): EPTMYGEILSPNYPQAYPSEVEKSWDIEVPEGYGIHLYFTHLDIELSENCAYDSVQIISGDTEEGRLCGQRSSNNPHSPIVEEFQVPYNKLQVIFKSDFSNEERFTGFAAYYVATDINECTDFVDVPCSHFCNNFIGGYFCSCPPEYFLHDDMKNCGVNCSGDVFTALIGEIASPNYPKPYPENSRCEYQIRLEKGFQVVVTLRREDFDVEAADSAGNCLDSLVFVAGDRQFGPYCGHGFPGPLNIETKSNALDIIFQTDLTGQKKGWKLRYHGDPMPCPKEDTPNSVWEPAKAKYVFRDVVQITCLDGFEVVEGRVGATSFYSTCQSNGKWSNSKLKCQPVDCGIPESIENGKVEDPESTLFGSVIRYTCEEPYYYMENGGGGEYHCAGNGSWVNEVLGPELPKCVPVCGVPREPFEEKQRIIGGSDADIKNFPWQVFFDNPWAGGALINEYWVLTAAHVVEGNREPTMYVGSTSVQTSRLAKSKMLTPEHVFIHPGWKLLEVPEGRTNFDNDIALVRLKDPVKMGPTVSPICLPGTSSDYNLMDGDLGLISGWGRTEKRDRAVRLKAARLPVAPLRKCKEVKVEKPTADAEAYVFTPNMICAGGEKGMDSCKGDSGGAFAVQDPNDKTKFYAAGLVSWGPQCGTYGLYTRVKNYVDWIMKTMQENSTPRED
Description: Compound Testing in the C1s Enzymatic Assay
The enzyme cleaves the substrate with the release of Rh110 which is highly fluorescent. C1s inhibitors prevent the hydrolysis of the substrate thus resulting in a decrease of the signal.
On the day of the experiment 0.1 mg/mL BSA (Sigma, B4287) is added fresh to the buffer. The test item stock solutions are serially diluted 1:3 or 1:4 or 1:5 with DMSO, 11-point curves, in a 384-well compound plate. Nafamostat concentration curve is always included in the assay plate as a reference control.
The high controls are prepared dispensing in 0.25 μL DMSO in column 23, rows AH or AP and low controls with 0.25 μL of 0.1 M Nafamostat. […] The YLGR-Rh110-dPro substrate is prepared as 2× of the final assay concentration of 20 μM. 1/well of 2× enzyme solution is dispensed and pre-incubated for 15 min with the compounds. The enzymatic reaction is then started with 5 μL/well of the 2× substrate solution.

Row | Molecule | hC1s pIC50
1 | 7-(3-cyclopropyl-1-hydroxy-3,4-dihydro-2,1-benzoxazonin-7-yl)cinnolin-4-amine [Example 147] | 8.38

same assay, conditions: substrate YLGR-Rh110-dPro 20 μM, 15 min pre-incubation, 60 min RT, fluorescence, read-out: hC1s pIC50 (converted)

Row | Molecule | IC50 [nM]
2 | CS(=O)(=O)c1ccc(B(O)O)cc1-c1ccc2c(N)cnnc2c1 [Example 164, [3-(4-aminocinnolin-7-yl)-4-methylsulfonylphenyl]boronic acid formic acid salt] | 12.6
3 | Nc1cnnc2cc(-c3cc(B(O)O)ccc3OC(F)(F)C(F)F)ccc12 [Example 105, [3-(4-aminocinnolin-7-yl)-4-(1,1,2,2-tetrafluoroethoxy)phenyl]boronic Acid] | 1.12
4 | Nc1cnnc2cc(-c3cc(B(O)O)cc4c3OC(F)(F)O4)ccc12 [Example 128, [7-(4-aminocinnolin-7-yl)-2,2-difluoro-2H-1,3-benzodioxol-5-yl]boronic Acid] | 0.55
5 | Cc1nnc(N)c2ccc(-c3ccc(NC(=O)c4ccccc4)c(B(O)O)c3)cc12 [Example 70, [5-(1-amino-4-methylphthalazin-6-yl)-2-benzamidophenyl]boronic Acid] | 3.8
6 | COc1ccc(B(O)O)cc1-c1cc2nncc(N)c2cc1F [Example 92, [3-(4-amino-6-fluorocinnoline-7-yl)-4-methoxyphenyl]boronic Acid] | 17.4
7 | CC(C)CC(=O)Nc1ccc(B(O)O)cc1-c1ccc2c(N)cnnc2c1 [Example 64, [3-(4-aminocinnolin-7-yl)-4-(3-methylbutanamido)phenyl]boronic Acid Formic Acid Salt] | 15.1
8 | Nc1cnnc2cc(-c3ccc(CC(=O)O)c(B(O)O)c3)ccc12 [Example 127, 2-[4-(4-aminocinnolin-7-yl)-2-(dihydroxyboranyl)phenyl]acetic Acid] | 13.2
9 | COc1ccc(B(O)O)c(F)c1-c1ccc2c(N)cnnc2c1 [Example 48, [3-(4-aminocinnolin-7-yl)-2-fluoro-4-methoxyphenyl]boronic Acid] | 4.07
10 | CC1(C)COC(COc2ccc(B(O)O)cc2-c2ccc3c(N)cnnc3c2)C1 (stereo not shown) [Example 114, [3-(4-aminocinnolin-7-yl)-4-[(4,4-dimethyloxolane-2-yl)methoxy]phenyl]boronic Acid] | 1.05
11 | COc1cc(C(F)F)c(B(O)O)cc1-c1ccc2c(N)nnc(C)c2c1 [Example 35, [5-(1-amino-4-methylphthalazin-6-yl)-2-(difluoromethyl)-4-methoxyphenyl]boronic Acid] | 2.69
12 | Cc1nnc(N)c2ccc(-c3cc(B(O)O)ccc3NC(=O)CC(C)C)cc12 [Example 59, [3-(1-amino-4-methylphthalazin-6-yl)-4-(3-methylbutanoylamino)phenyl]boronic Acid Formic Acid Salt] | 3.24
13 | Cc1nc2c(-c3ccc4c(N)cnnc4c3)cc(B(O)O)cc2o1 [Example 119, [4-(4-aminocinnolin-7-yl)-2-methyl-1,3-benzoxazol-6-yl]boronic Acid Formic Acid Salt] | 0.646
14 | COc1cc(C(F)(F)F)c(-c2ccc3c(N)nnc(C)c3c2)cc1B(O)O [Example 63, [5-(1-amino-4-methylphthalazin-6-yl)-2-methoxy-4-(trifluoromethyl)phenyl]boronic Acid] | 2.14
15 | COc1ccc(B(O)O)c(F)c1-c1ccc2c(N)nnc(C)c2c1 [Example 34, [3-(1-amino-4-methylphthalazin-6-yl)-2-fluoro-4-methoxyphenyl]boronic Acid Formic Acid Salt] | 1.02
16 | Cc1nnc(N)c2ccc(-c3ccc4c(c3)B(O)OC(C)C4)cc12 (single isomer, unassigned) [Example 72, 6-(1-hydroxy-3-methyl-3,4-dihydro-2,1-benzoxazonin-7-yl)-4-methylphthalazin-1-amine] | 1.02
17 | COc1ccc(B(O)O)cc1-c1cc(OC)c2ccnnc2c1 [Example 162, [4-methoxy-3-(5-methoxycinnoline-7-yl)phenyl]boronic Acid] | > 25100
18 | COc1ncc(B(O)O)cc1-c1ccc2c(N)nnc(C)c2c1 [Example 30, [5-(1-amino-4-methylphthalazin-6-yl)-6-methoxypyridin-3-yl]boronic Acid] | 2.04
19 | Nc1nnc(C2CC2)c2cc(-c3cccc(B(O)O)c3)ccc12 [Example 11, [3-(1-amino-4-cyclopropylphthalazin-6-yl)phenyl]boronic Acid Formic Acid Salt] | 214

Row | Molecule | IC50 [nM]
20 | Cc1nnc(N)c2ccc(-c3ccc4c(c3)B(O)OC(C)C4)cc12 (single isomer, unassigned) [Example 73, 6-(1-hydroxy-3-methyl-3,4-dihydro-2,1-benzoxazonin-7-yl)-4-methylphthalazin-1-amine] | 0.912
21 | Cc1nnc(N)c2ccc(-c3cc(B(O)O)ccc3OC(F)F)cc12 [Example 131, [3-(1-amino-4-methylphthalazin-6-yl)-4-(difluoromethoxy)phenyl]boronic Acid Formic Acid Salt] | 0.617
22 | CNc1cnnc2cc(-c3cc(B(O)O)ccc3OC)ccc12 [Example 75, [4-methoxy-3-[4-(methylamino)cinnolin-7-yl]phenyl]boronic Acid] | 224
23 | Cc1cc(OC(F)F)c(-c2ccc3c(N)cnnc3c2)cc1B(O)O [Example 108, [5-(4-aminocinnolin-7-yl)-4-(difluoromethoxy)-2-methylphenyl]boronic Acid] | 1.86
24 | Cc1nnc(N)c2ccc(-c3ccc(NC(=O)C(C)C)c(B(O)O)c3)cc12 [Example 89, [5-(1-amino-4-methylphthalazin-6-yl)-2-(2-methylpropanamido)phenyl]boronic Acid] | 5.89
25 | Cc1ccc(B(O)O)cc1-c1ccc2c(N)nnc(C)c2c1 [Example 10, [3-(1-amino-4-methylphthalazin-6-yl)-4-methylphenyl]boronic Acid Formic Acid Salt] | 6.92
26 | COc1cc(C)c(B(O)O)cc1-c1ccc2c(N)cnnc2c1 [Example 134, [5-(4-aminocinnolin-7-yl)-4-methoxy-2-methylphenyl]boronic Acid Formic Acid Salt] | 2.09
27 | Nc1cnnc2cc(-c3cc(B(O)O)ccc3OC(F)C(F)(F)F)ccc12 (stereo not shown) [Example 106, [3-(4-aminocinnolin-7-yl)-4-(1,2,2,2-tetrafluoroethoxy)phenyl]boronic Acid] | 1.02
28 | Cc1nc2cc(B(O)O)cc(-c3ccc4c(N)cnnc4c3)c2o1 [Example 122, [7-(4-aminocinnolin-7-yl)-2-methyl-1,3-benzoxazol-5-yl]boronic Acid Formic Acid Salt] | 1.17
29 | Nc1cnnc2cc(-c3ccc(C(F)(F)F)c(B(O)O)c3)ccc12 [Example 88, [5-(4-aminocinnolin-7-yl)-2-(trifluoromethyl)phenyl]boronic Acid] | 5.75
30 | COc1ccc(B(O)O)cc1-c1ccc2c(N)ncc(C)c2c1 [Example 111, [3-(1-amino-4-methylisoquinolin-6-yl)-4-methoxyphenyl]boronic Acid] | 17.4
31 | Cc1ncc(Oc2ccc(B(O)O)cc2-c2ccc3c(N)cnnc3c2)s1 [Example 171, [3-(4-aminocinnolin-7-yl)-4-(2-methylthiazol-5-yl)oxy-phenyl]Boronic Acid Formic Acid Salt] | 1.29
32 | O=CO.[2H]C([2H])([2H])Oc1ccc(B(O)O)cc1-c1ccc2c(N)cnnc2c1 [Example 159, [3-(4-aminocinnolin-7-yl)-4-(^2H3)methoxyphenyl]boronic Acid Formic Acid Salt] | 1.26
33 | Nc1cnnc2cc(-c3cc(B(O)O)ccc3OCC3(C(F)(F)F)CC3)ccc12 [Example 91, [3-(4-aminocinnolin-7-yl)-4-{[1-(trifluoromethyl)cyclopropyl]methoxy}phenyl]boronic Acid] | 1.62
34 | Nc1cnnc2cc(-c3cc(F)c4c(c3)B(O)OCC4)ccc12 [Example 99, 7-(4-aminocinnolin-7-yl)-5-fluoro-3,4-dihydro-1H-2,1-benzoxazonin-1-ol] | 1.55
35 | Nc1cnnc2cc(-c3cc(B(O)O)ccc3OCC3CNC(=O)C3)ccc12 (single isomer, unassigned) [Example 155, [3-(4-aminocinnolin-7-yl)-4-[(5-oxopyrrolidin-3-yl)methoxy]phenyl]boronic Acid] | 3.89
36 | CC(C)C1Cc2ccc(-c3ccc4c(N)cnnc4c3)cc2B(O)O1 (single isomer, unassigned) [Example 152] | 3.09
37 | COc1ccc(B(O)O)cc1-c1cc(F)c2c(N)cnnc2c1 [Example 31, [3-(4-amino-5-fluorocinnoline-7-yl)-4-methoxyphenyl]boronic Acid] | 15.1
